Assay results published in publication PMC9001717, “Tyrosine 121 moves revealing a ligandable pocket that couples catalysis to ATP-binding in serine racemase” (Communications Biology, 2022).

How the values were obtained:
[1] = molecular target: T1, human serine racemase (hSR) WT (Homo sapiens, UniProt Q9GZT4, C2D/C6D); assay: L- to D-Ser racemisation coupled luminescence assay, wild-type hSR; assay type: biochemical; details: for IC50: wild-type hSR, 1 mM ATP, 2 mM L-serine, 16.7% DMSO, ~ = extrapolated with artificial 100% point at 1 M
T1 construct: (His)6 (C); made in house; host or cells: E. coli (BL21-CodonPlus (DE3)-RIL for the mutants; the wild type is only 'as described[33]')
T1 sequence (Q9GZT4 1-340 C2D/C6D): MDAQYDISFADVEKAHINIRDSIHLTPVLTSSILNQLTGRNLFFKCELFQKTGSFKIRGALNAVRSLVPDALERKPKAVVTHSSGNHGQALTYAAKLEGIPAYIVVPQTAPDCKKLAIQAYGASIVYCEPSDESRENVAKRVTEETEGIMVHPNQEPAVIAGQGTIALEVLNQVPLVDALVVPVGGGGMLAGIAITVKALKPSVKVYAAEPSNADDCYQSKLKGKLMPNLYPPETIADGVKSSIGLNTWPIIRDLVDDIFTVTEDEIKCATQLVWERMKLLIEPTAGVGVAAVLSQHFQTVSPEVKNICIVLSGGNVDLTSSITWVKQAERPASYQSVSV
Procedure: (§1) The ability of compounds to inhibit the L to D-Ser racemisation activity of hSR was measured in a coupled assay. In the assay, hSR converts L-Ser to D-Ser. The D-Ser is then converted into pyruvate, ammonia and hydrogen peroxide using D-amino acid oxidase. Next, the hydrogen peroxide reacts with luminol in the presence of horseradish peroxidase, producing luminescent by-product. In the assay malonate was used as a control compound and gave 100% inhibition – results for XChem compounds are shown in Supplementary Table 4 and in supplementary Fig. 12. The activity of the wild-type and the three Y121 mutants, Y121F, Y121A and Y121G was measured at six ATP concentrations (1 mM, 0.5 mM, 0.25 mM, 0.125 mM, 0.062 mM and 0.031 mM) as shown in supplementary Fig. 11.
(§2) The inhibition of hSR activity was measured using a luminescence assay in a 384 well plate (flat bottom white, Corning). Initially, each well contained 100 mM Tris pH 8.5, 0.05% Pluronic f-127 (VWR), 1 mM MgCl2, 1 mM ATP (disodium salt, Fisher), 10 µM PLP, 0.3 nM hSR, 2 mM L-serine and compound at 16.67 mM to 0.0077 mM (see supplementary Fig. 12) and had 16.7% DMSO concentration. The plate was incubated at RT with shaking for 30 min. After this, the reaction was stopped using a detection mix. The final well concentration was 100 mM Tris pH 8.5, 0.05% Pluronic f-127 (VWR), 1 mM EDTA (Fisher), 0.25 U/mL horseradish peroxidase, 0.5 U/mL D-amino acid oxidase and 25 µM Luminol (Insight Biotechnology) and 8.4% DMSO. The plate was left to incubate covered and shaking for 10 min. The plate was then read using a PHERAstar (BMG) plate reader. For the ATP dependant activity data, the method was kept the same, except for varying the concentration of ATP.
(§3) The relative light units read (x) on the PHERAstar were converted into percentage inhibition (PI) using the equation: PI=100x[1−(x−Min)/(Max−Min)] where min is negative control (100% inhibition) and max is the positive control (no inhibition). The IC50s were calculated with GraphPad (Prism 8.3.1, Graphpad Software, San Diego CA).

hSR Y121A = molecular target: T2, hSR Y121A (Homo sapiens, UniProt Q9GZT4, C2D/C6D/Y121A); assay: L- to D-Ser racemisation coupled luminescence assay, Y121A mutant; assay type: biochemical; details: 1 mM ATP, 2 mM L-serine, 16.7% DMSO, ~ = extrapolated
T2 construct: (His)6 (C); made in house; host or cells: E. coli BL21-CodonPlus (DE3)-RIL
T2 sequence (Q9GZT4 1-340 C2D/C6D/Y121A): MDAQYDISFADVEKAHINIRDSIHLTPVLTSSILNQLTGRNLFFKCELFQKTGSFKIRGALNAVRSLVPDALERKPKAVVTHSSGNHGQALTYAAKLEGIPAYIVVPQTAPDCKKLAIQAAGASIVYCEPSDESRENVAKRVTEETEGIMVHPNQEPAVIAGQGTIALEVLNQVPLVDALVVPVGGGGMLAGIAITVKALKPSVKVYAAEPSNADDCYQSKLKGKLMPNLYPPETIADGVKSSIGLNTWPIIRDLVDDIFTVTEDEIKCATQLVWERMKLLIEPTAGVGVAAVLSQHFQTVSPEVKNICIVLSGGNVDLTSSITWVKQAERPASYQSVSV
Procedure: as §1, §2, §3

SR [2] = details: cited from earlier work; for Ki: review of SR inhibitors
SR [3] = tested on: SR; parameters: method as in supplementary refs 2, 11-32; details: literature summary; ref supplementary refs 2, 11-32; cited from earlier work
hSR Tyr 121 pocket = molecular target: T3, hSR Tyr 121 pocket (Homo sapiens, UniProt Q9GZT4, C2D/C6D); assay: XChem crystallographic fragment screen; assay type: binding; parameters: key: A = best; D = worst; details: crystals soaked with 150 mM fragment
T3 construct: (His)6 (C); made in house; host or cells: E. coli (BL21-CodonPlus (DE3)-RIL for the mutants; the wild type is only 'as described[33]')
T3 sequence (Q9GZT4 1-340 C2D/C6D): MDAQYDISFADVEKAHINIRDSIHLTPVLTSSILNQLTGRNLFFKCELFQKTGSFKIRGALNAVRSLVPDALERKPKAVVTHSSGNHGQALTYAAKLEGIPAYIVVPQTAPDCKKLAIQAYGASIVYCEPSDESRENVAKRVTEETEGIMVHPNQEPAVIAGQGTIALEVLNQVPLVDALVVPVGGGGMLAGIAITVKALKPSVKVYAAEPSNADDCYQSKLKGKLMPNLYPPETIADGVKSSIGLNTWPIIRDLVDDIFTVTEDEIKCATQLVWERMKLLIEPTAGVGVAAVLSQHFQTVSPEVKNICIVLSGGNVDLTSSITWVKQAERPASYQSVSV
Procedure: A crystallographic fragment screen was performed on holo crystals using the XChem screening strategy at Diamond Light Source[58]. For the XChem experiments, holo crystals were generated at 20 °C in 96-well Swissci 3-drop, sitting drop plates (Molecular Dimensions) using 14 mg/mL SR plus fresh 5 mM DTT dispensed in a 3:2 ratio (300 nL protein + 200 nL reservoir) equilibrated against 20 μL reservoir containing 100 mM MES pH 6.2, 100 mM Calcium chloride, 5% ethylene glycol and 20% PEG Smear Broad (Molecular Dimensions). This crystallisation condition differs from that reported in a recent crystal structure of holo SR (6SLH) which was crystallised against reservoir/precipitate of 100 mM Bis-Tris pH 6.5, 15% PEG 3350, 250 mM MgCl2[33]. ATP was present in the protein delivery buffer at 1.25-fold times the protein subunit concentration.
Crystal soaking, harvesting, mounting, and data collections were performed at the Diamond Light Source XChem facilities and beamline I04-1 through the XChem workflow[50],[59]. […] The full compound screen was performed on 600 crystals which were each soaked with 150 mM fragment compound (30% v/v of 500 mM stocks in DMSO) for ≥1.5 h before crystals were harvested and mounted on the fast microscope crystal mounting system. The fragments screened were obtained from the Diamond-SGC-iNext Poised (DSiP) XChem library.
The structure of the representative XChem holo crystal (20% DMSO soak, no fragment) presented in this paper (6ZUJ) was solved by rigid body refinement based on a previous structure (6SLH)[33] and refined with phenix.refine[71] and REFMAC5[68],[72] and modelled in coot[69]. Initial analysis of approx. 600 ligand-soaked crystals was carried out using XChemExplorer[59] a data-management and workflow tool to support large-scale simultaneous analysis of protein–ligand complexes during structure-based ligand discovery. The workflow flagged 95 structures with binding events, 44 of which were classified as interesting, spanning four distinct binding sites. Five SR structures from the XChem screen are described in this paper that are representative examples of the four major binding sites. One compound, 2-x0406, occupied not just one of the four major binding sites, but also occupied a second site adjacent to the tyrosine 121 pocket.

Molecule | Inhibition mode (SR [3]) | Initial rank from examination of XChem electron density/fit (hSR Tyr 121 pocket) | also measured
CS(=O)(=O)Cc1nc2ccccc2[nH]1 [15-x0306] | – | – | IC50 [1]: ~12.8 mM; IC50 (hSR Y121A): ~16.1 mM
N[C@@H](CC(=O)NO)C(=O)O [L-aspartic acid β-hydroxamate] | Competitive | – | Ki (SR [2]): < 0.1 mM
CC(CS(N)(=O)=O)c1ccccc1 (stereo not shown) [10-x0302] | – | D | –
CNCC1COc2ccccc2O1 (stereo not shown) [6-x0513] | – | A | –
N[C@H](C(=O)O)[C@H](O)C(=O)O [L-erythro-3-hydroxy-aspartate] | Competitive | – | Ki (SR [2]): < 0.1 mM
CC(=O)NCCc1ccccc1C [1-x0495] | – | A | inhibition at 10000 µM ([1]; 10mM, value of the originally submitted manuscript, quoted in peer review file): 102%; IC50 [1]: ~19.5 mM; IC50 (hSR Y121A): ~23.6 mM
NC(=O)c1cnc(C(F)(F)F)nc1 [5-x0501] | – | D | –
Cn1nccc1C(=O)NCc1cccs1 [9-x0154] | – | D | –
CCCc1nnc(NC(=O)c2ccccn2)s1 [8-x0127] | – | D | –
madecassoside | Competitive | – | IC50 (SR [2]; ref 49): 0.026 mM
Golga3: Golgin subfamily A member 3 (protein, UniProt Q08378 1-1498, looked up) Golgin subfamily A member 3: MDGASAEQDGLQEDRSHSGPSSLPEAPLKPPGPLVPPDQQDKVQCAEVNRASTEGESPDGPGQGGLCQNGPTPPFPDPPSSLDPTTSPVGPDASPGVAGFHDNLRKSQGTSAEGSVRKEALQSLRLSLPMQETQLCSTDSPLPLEKEEQVRLQARKWLEEQLKQYRVKRQQERSSQPATKTRLFSTLDPELMLNPENLPRASTLAMTKEYSFLRTSVPRGPKVGSLGLPAHPREKKTSKSSKIRSLADYRTEDSNAGNSGGNVPAPDSTKGSLKQNRSSAASVVSEISLSPDTDDRLENTSLAGDSVSEVDGNDSDSSSYSSASTRGTYGILSKTVGTQDTPYMVNGQEIPADTLGQFPSIKDVLQAAAAEHQDQGQEVNGEVRSRRDSICSSVSLESSAAETQEEMLQVLKEKMRLEGQLEALSLEASQALKEKAELQAQLAALSTKLQAQVECSHSSQQRQDSLSSEVDTLKQSCWDLERAMTDLQNMLEAKNASLASSNNDLQVAEEQYQRLMAKVEDMQRSMLSKDNTVHDLRQQMTALQSQLQQVQLERTTLTSKLKASQAEISSLQSVRQWYQQQLALAQEARVRLQGEMAHIQVGQMTQAGLLEHLKLENVSLSQQLTETQHRSMKEKGRIAAQLQGIEADMLDQEAAFMQIQEAKTMVEEDLQRRLEEFEGERERLQRMADSAASLEQQLEQVKLTLLQRDQQLEALQQEHLDLMKQLTLTQEALQSREQSLDALQTHYDELQARLGELQGEAASREDTICLLQNEKIILEAALQAAKSGKEELDRGARRLEEGTEETSETLEKLREELAIKSGQVEHLQQETAALKKQMQKIKEQFLQQKVMVEAYRRDATSKDQLISELKATRKRLDSELKELRQELMQVHGEKRTAEAELSRLHREVAQVRQHMADLEGHLQSAQKERDEMETHLQSLQFDKEQMVAVTEANEALKKQIEELQQEARKAITEQKQKMRRLGSDLTSAQKEMKTKHKAYENAVGILSRRLQEALAAKEAADAELGQLRAQGGSSDSSLALHERIQALEAELQAVSHSKTLLEKELQEVIALTSQELEESREKVLELEDELQESRGFRKKIKRLEESNKKLALELEHEKGKLTGLGQSNAALREHNSILETALAKREADLVQLNLQVQAVLQRKEEEDRQMKHLVQALQASLEKEKEKVNSLKEQVAAAKVEAGHNRRHFKAASLELSEVKKELQAKEHLVQKLQAEADDLQIREGKHSQEIAQFQAELAEARAQLQLLQKQLDEQLSKQPVGNQEMENLKWEVDQKEREIQSLKQQLDLTEQQGRKELEGLQQLLQNVKSELEMAQEDLSMTQKDKFMLQAKVSELKNNMKTLLQQNQQLKLDLRRGAAKTRKEPKGEASSSNPATPIKIPDCPVPASLLEELLRPPPAVSKEPLKNLNSCLQQLKQEMDSLQRQMEEHALTVHESLSSWTPLEPATASPVPPGGHAGPRGDPQRHSQSRASKEGPGE | Increases SR levels | – | –
DISC1: Disrupted-In-Schizophrenia-1 (protein, UniProt Q9NRI5 1-854, looked up) Disrupted in schizophrenia 1 …: MPGGGPQGAPAAAGGGGVSHRAGSRDCLPPAACFRRRRLARRPGYMRSSTGPGIGFLSPAVGTLFRFPGGVSGEESHHSESRARQCGLDSRGLLVRSPVSKSAAAPTVTSVRGTSAHFGIQLRGGTRLPDRLSWPCGPGSAGWQQEFAAMDSSETLDASWEAACSDGARRVRAAGSLPSAELSSNSCSPGCGPEVPPTPPGSHSAFTSSFSFIRLSLGSAGERGEAEGCPPSREAESHCQSPQEMGAKAASLDGPHEDPRCLSRPFSLLATRVSADLAQAARNSSRPERDMHSLPDMDPGSSSSLDPSLAGCGGDGSSGSGDAHSWDTLLRKWEPVLRDCLLRNRRQMEVISLRLKLQKLQEDAVENDDYDKAETLQQRLEDLEQEKISLHFQLPSRQPALSSFLGHLAAQVQAALRRGATQQASGDDTHTPLRMEPRLLEPTAQDSLHVSITRRDWLLQEKQQLQKEIEALQARMFVLEAKDQQLRREIEEQEQQLQWQGCDLTPLVGQLSLGQLQEVSKALQDTLASAGQIPFHAEPPETIRSLQERIKSLNLSLKEITTKVCMSEKFCSTLRKKVNDIETQLPALLEAKMHAISGNHFWTAKDLTEEIRSLTSEREGLEGLLSKLLVLSSRNVKKLGSVKEDYNRLRREVEHQETAYETSVKENTMKYMETLKNKLCSCKCPLLGKVWEADLEACRLLIQSLQLQEARGSLSVEDERQMDDLEGAAPPIPPRLHSEDKRKTPLKVLEEWKTHLIPSLHCAGGEQKEESYILSAELGEKCEDIGKKLLYLEDQLHTAIHSHDEDLIQSLRRELQMVKETLQAMILQLQPAKEAGEREAAASCMTAGVHEAQA | Stabilises SR | – | –
